Columns and labels:
KRASG12D = molecular target: T1, KRASG12D (Homo sapiens, UniProt P01116, G12D); experiment: Bio-Biochem-PPI-HTRF Ras-SOS1 interaction assay (KRAS G12D); type: biochemical; details: 5 nM
T1 construct: made in house; host or cells: E. coli BL21 (DE3)
Procedure, shortened: (§1)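 Compounds tested in duplicate (10 μM to 0.01 μM) for disruption of His-hSOS1 binding to GST-tagged wild-type or G12D K-Ras in HEPES pH 7.4 buffer. TR-FRET read (Eu donor, XL665 acceptor) after about 10 min or longer; IC50 derived from the 665/620 nm emission ratio.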

KRASwt = molecular target: T2, KRASwt (Homo sapiens, UniProt P01116); experiment: Bio-Biochem-PPI-HTRF Ras-SOS1 interaction assay (KRAS wt); type: biochemical; details: 5 nM
T2 construct: made in house; host or cells: E. coli BL21 (DE3)
Procedure, shortened: as §1

T2 sequence (P01116 1-188 isoform P01116-2): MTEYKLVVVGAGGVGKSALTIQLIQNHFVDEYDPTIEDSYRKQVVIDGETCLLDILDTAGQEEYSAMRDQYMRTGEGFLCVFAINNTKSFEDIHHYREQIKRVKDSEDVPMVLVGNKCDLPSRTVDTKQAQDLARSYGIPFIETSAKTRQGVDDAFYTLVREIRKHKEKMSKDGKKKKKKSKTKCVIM
T1 sequence (P01116 1-188 isoform P01116-2 G12D): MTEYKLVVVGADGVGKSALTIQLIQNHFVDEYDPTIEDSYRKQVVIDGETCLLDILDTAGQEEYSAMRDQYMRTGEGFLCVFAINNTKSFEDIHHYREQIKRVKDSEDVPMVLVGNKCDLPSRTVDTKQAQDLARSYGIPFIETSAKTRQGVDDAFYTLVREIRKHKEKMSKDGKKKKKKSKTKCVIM

IC50 (KRASG12D) [µM] | IC50 (KRASwt) [µM] | SMILES
< 5 | < 5 | N#Cc1c(N)sc2c(F)ccc(-c3c(Cl)cc4c(N5CCCCC6(CN(C(=O)C7(C(F)F)COC7)C6)C5)nc(OC[C@@]56CCCN5C[C@H](F)C6)nc4c3F)c12 [compound 340, 2-amino-4-(6-chloro-4-(2-(3-(difluoromethyl)oxetane-3-carbonyl)-2,6-diazaspiro[3.6]decan-6-yl)-8-fluoro-2-(((2R,7aS)-2-fluorotetrahydro-1H-pyrrolizin-7a(5H)-yl)methoxy)quinazolin-7-yl)-7-fluorobenzo[b]thiophene-3-carbonitrile]
< 5 | < 5 | N#Cc1c(N)sc2c(F)ccc(-c3c(Cl)cc4c(N5CCCCC6(CN(C(=O)C[C@@H]7CCOC7)C6)C5)nc(OC[C@@]56CCCN5C[C@H](F)C6)nc4c3F)c12 [compound 259, 2-amino-4-(6-chloro-8-fluoro-2-(((2R,7aS)-2-fluorotetrahydro-1H-pyrrolizin-7a(5H)-yl)methoxy)-4-(2-(2-((S)-tetrahydrofuran-3-yl)acetyl)-2,6-diazaspiro[3.6]decan-6-yl)quinazolin-7-yl)-7-fluorobenzo[b]thiophene-3-carbonitrile]
< 5 | < 5 | N#Cc1c(N)sc2c(F)ccc(-c3c(Cl)cc4c(N5CCCC6(CN(C(=O)C7CC7)C6)C5)nc(OC[C@@]56CCCN5C[C@H](F)C6)nc4c3F)c12 [compound 120, 2-amino-4-(6-chloro-4-(2-(cyclopropanecarbonyl)-2,6-diazaspiro[3.5]nonan-6-yl)-8-fluoro-2-(((2R,7aS)-2-fluorotetrahydro-1H-pyrrolizin-7a(5H)-yl)methoxy)quinazolin-7-yl)-7-fluorobenzo[b]thiophene-3-carbonitrile]
< 5 | < 5 | N#Cc1c(N)sc2c(F)ccc(-c3c(Cl)cc4c(N5CCCCC6(CN(C(=O)C7C8CCOC87)C6)C5)nc(OC[C@@]56CCCN5C[C@H](F)C6)nc4c3F)c12 (stereo partly drawn) [compound 270, 4-(4-(2-(2-oxabicyclo[3.1.0]hexane-6-carbonyl)-2,6-diazaspiro [3.6]decan-6-yl)-6-chloro-8-fluoro-2-(((2R,7aS)-2-fluorotetrahydro-1H-pyrrolizin-7a(5H)-yl)methoxy)quinazolin-7-yl)-2-amino-7-fluorobenzo[b]thiophene-3-carbonitrile]
< 5 | < 5 | N#Cc1c(N)sc2c(F)ccc(-c3c(Cl)cc4c(N5CCCCC6(CN(C(=O)C7CC78CC8)C6)C5)nc(OC[C@@]56CCCN5C[C@H](F)C6)nc4c3F)c12 (stereo partly drawn) [compound 286, 2-amino-4-(6-chloro-8-fluoro-2-(((2R,7aS)-2-fluorotetrahydro-1H-pyrrolizin-7a(5H)-yl)methoxy)-4-(2-(spiro[2.2]pentane-1-carbonyl)-2,6-diazaspiro[3.6]decan-6-yl)quinazolin-7-yl)-7-fluorobenzo[b]thiophene-3-carbonitrile]
< 5 | < 5 | N#Cc1c(N)sc2c(F)ccc(-c3c(Cl)cc4c(N5CCCCC6(CN(C(=O)C7(C#N)CC7)C6)C5)nc(OC[C@@]56CCCN5C[C@H](F)C6)nc4c3F)c12 [compound 242, 2-amino-4-(6-chloro-4-(2-(1-cyanocyclopropane-1-carbonyl)-2,6-diazaspiro[3.6]decan-6-yl)-8-fluoro-2-(((2R,7aS)-2-fluorotetrahydro-1H-pyrrolizin-7a(5H)-yl)methoxy)quinazolin-7-yl)-7-fluorobenzo[b]thiophene-3-carbonitrile]

Second part, the compound before the results:

SMILES | IC50 (KRASG12D) [µM] | IC50 (KRASwt) [µM]
N#Cc1c(N)sc2c(F)ccc(-c3c(Cl)cc4c(N5CCC(O)CC6(CN(C(=O)C(F)F)C6)C5)nc(OC[C@@]56CCCN5C[C@H](F)C6)nc4c3F)c12 (stereo partly drawn) [compound 241, 2-amino-4-(6-chloro-4-(2-(2,2-difluoroacetyl)-9-hydroxy-2,6-diazaspiro [3.6]decan-6-yl)-8-fluoro-2-(((2R,7aS)-2-fluorotetrahydro-1H-pyrrolizin-7a(5H)-yl)methoxy)quinazolin-7-yl)-7-fluorobenzo[b]thiophene-3-carbonitrile] | < 5 | < 5
N#Cc1c(N)sc2c(F)ccc(-c3c(Cl)cc4c(N5CCCCC6(CN(C(=O)C7(CC(F)F)CC7)C6)C5)nc(OC[C@@]56CCCN5C[C@H](F)C6)nc4c3F)c12 [compound 227, 2-amino-4-(6-chloro-4-(2-(1-(2,2-difluoroethyl)cyclopropane-1-carbonyl)-2,6-diazaspiro[3.6]decan-6-yl)-8-fluoro-2-(((2R,7aS)-2-fluorotetrahydro-1H-pyrrolizin-7a(5H)-yl)methoxy)quinazolin-7-yl)-7-fluorobenzo[b]thiophene-3-carbonitrile] | < 5 | < 5
N#Cc1c(N)sc2c(F)ccc(-c3c(Cl)cc4c(N5CCOC6(CN(C(=O)[C@@H]7CC7(F)F)C6)C5)nc(OC[C@@]56CCCN5C[C@H](F)C6)nc4c3F)c12 [compound 217, 2-amino-4-(6-chloro-4-(2-((S)-2,2-difluorocyclopropane-1-carbonyl)-5-oxa-2,8-diazaspiro[3.5]nonan-8-yl)-8-fluoro-2-(((2R,7aS)-2-fluorotetrahydro-1H-pyrrolizin-7a(5H)-yl)methoxy)quinazolin-7-yl)-7-fluorobenzo[b]thiophene-3-carbonitrile] | < 5 | < 5
CC1(C)CN(c2nc(OC[C@@]34CCCN3C[C@H](F)C4)nc3c(F)c(-c4ccc(F)c5sc(N)c(C#N)c45)c(Cl)cc23)CC2(CNC2)O1 [compound 101, 2-amino-4-(6-chloro-4-(6,6-dimethyl-5-oxa-2,8-diazaspiro[3.5]nonan-8-yl)-8-fluoro-2-(((2R,7aS)-2-fluorotetrahydro-1H-pyrrolizin-7a(5H)-yl)methoxy)quinazolin-7-yl)-7-fluorobenzo[b]thiophene-3-carbonitrile] | < 5 | < 5
CC1CCCC2(CN(C(=O)C3CC3(F)F)C2)CN1c1nc(OC[C@@]23CCCN2C[C@H](F)C3)nc2c(F)c(-c3ccc(F)c4sc(N)c(C#N)c34)c(Cl)cc12 (stereo partly drawn) [compound 288, 2-amino-4-(6-chloro-4-(2-(2,2-difluorocyclopropane-1-carbonyl)-7-methyl-2,6-diazaspiro[3.6]decan-6-yl)-8-fluoro-2-(((2R,7aS)-2-fluorotetrahydro-1H-pyrrolizin-7a(5H)-yl)methoxy)quinazolin-7-yl)-7-fluorobenzo[b]thiophene-3-carbonitrile] | < 5 | < 5
Nc1nc2c(-c3c(Cl)cc4c(N5CCC6(CC5)CN(C(=O)C(F)F)C6)nc(OC[C@@]56CCCN5C[C@H](F)C6)nc4c3F)ccc(F)c2s1 [compound 139, 1-(7-(7-(2-amino-7-fluorobenzo[d]thiazol-4-yl)-6-chloro-8-fluoro-2-(((2R,7aS)-2-fluorotetrahydro-1H-pyrrolizin-7a(5H)-yl)methoxy)quinazolin-4-yl)-2,7-diazaspiro[3.5]nonan-2-yl)-2,2-difluoroethan-1-one] | < 5 | < 5
C[C@H](Oc1nc(N2CCCC3(CN(C(=O)N4CC(F)(F)C4)C3)C2)c2cc(Cl)c(-c3ccc(F)c4sc(N)c(C#N)c34)c(F)c2n1)[C@@H]1CCCN1C [compound 212, 2-amino-4-(6-chloro-4-(2-(3,3-difluoroazetidine-1-carbonyl)-2,6-diazaspiro[3.5]nonan-6-yl)-8-fluoro-2-((S)-1-((S)-1-methylpyrrolidin-2-yl)ethoxy)quinazolin-7-yl)-7-fluorobenzo[b]thiophene-3-carbonitrile] | < 5 | < 5
Nc1nc2c(-c3c(Cl)cc4c(N5CCOC6(CCNC6)C5)nc(OCC56CCCN5C[C@H](F)C6)nc4c3F)ccc(F)c2s1 (stereo partly drawn) [compound 150, 4-(6-chloro-8-fluoro-2-(((2R)-2-fluorotetrahydro-1H-pyrrolizin-7a(5H)-yl)methoxy)-4-(6-oxa-2,9-diazaspiro[4.5]decan-9-yl)quinazolin-7-yl)-7-fluorobenzo[d]thiazol-2-amine] | < 5 | < 5
CCN(C(=O)N1CC2(C1)CN(c1nc(OC[C@@]34CCCN3C[C@H](F)C4)nc3c(F)c(-c4ccc(F)c5sc(N)c(C#N)c45)c(Cl)cc13)CC(F)(F)O2)C(C)C [compound 153, 8-(7-(2-amino-3-cyano-7-fluorobenzo[b]thiophen-4-yl)-6-chloro-8-fluoro-2-(((2R,7aS)-2-fluorotetrahydro-1H-pyrrolizin-7a(5H)-yl)methoxy)quinazolin-4-yl)-N-ethyl-6,6-difluoro-N-isopropyl-5-oxa-2,8-diazaspiro[3.5]nonane-2-carboxamide] | < 5 | < 5
N#Cc1c(N)sc2c(F)ccc(-c3c(Cl)cc4c(N5CCC(CO)CC6(CNC6)C5)nc(OC[C@@]56CCCN5C[C@H](F)C6)nc4c3F)c12 (stereo partly drawn) [compound 214, 2-amino-4-(6-chloro-8-fluoro-2-(((2R,7aS)-2-fluorotetrahydro-1H-pyrrolizin-7a(5H)-yl)methoxy)-4-(9-(hydroxymethyl)-2,6-diazaspiro[3.6]decan-6-yl)quinazolin-7-yl)-7-fluorobenzo[b]thiophene-3-carbonitrile] | < 5 | < 5
N#Cc1c(N)sc2c(F)ccc(-c3c(Cl)cc4c(N5CCOCC6(CN(C(=O)[C@@H]7CC7(F)F)C6)C5)nc(OC[C@@]56CCCN5C[C@H](F)C6)nc4c3F)c12 [compound 239, 2-amino-4-(6-chloro-4-(2-((S)-2,2-difluorocyclopropane-1-carbonyl)-6-oxa-2,9-diazaspiro[3.6]decan-9-yl)-8-fluoro-2-(((2R,7aS)-2-fluorotetrahydro-1H-pyrrolizin-7a(5H)-yl)methoxy)quinazolin-7-yl)-7-fluorobenzo[b]thiophene-3-carbonitrile] | < 5 | < 5

Reference: US20240109918A1, “HETEROCYCLIC COMPOUNDS AND USES THEREOF” (Kumquat Biosciences Inc., priority 2022, published 2024)
